Values after ≈ are worked out from the molar mass of the structure shown. Active and inactive are the calls of the source. The rule behind the calls is not given here.

One series has as its system HepG2. Kind of series: Cytotoxicity against human HepG2 cells assessed as growth inhibition after 72 hrs by MTT assay. The format is functional, cell-based. The following applies: HepG2, 72 h. Background: Formazan colour is commonly taken as a measure of viable cells.
In the next series the test system is MRC5. Kind of series: Cytotoxicity against human MRC5 cells after 72 hrs by MTT assay. Type of series: cell-based. As to conditions: MRC5, 72 h.
Series [1] relates to A549. Description: Cytotoxicity against human A549 cells assessed as growth inhibition after 72 hrs by MTT assay. Type of series: functional, cell-based. As to conditions: A549, 72 h.
For a further series, the system named is HCT-116. Kind of series: Cytotoxicity against human HCT116 cells assessed as growth inhibition after 72 hrs by MTT assay. As to conditions: HCT-116, 72 h. Type of series: functional, cell-based.
Series [2] has as its system A549. Kind of series: Antitumor activity in human A549 cells xenografted in athymic nude mouse assessed as tumor growth inhibition at 5 mg/kg, ip administered every other day for 21 days. The format is functional. The following applies: 504 h, read-out: TGI.
Series [3] has as its system A549. Kind of series: Induction of apoptosis in human A549 cells assessed as nuclei condensation after 24 hrs by DAPI staining based immunofluorescence microscopic analysis. The format is functional, cell-based.
Another series has as its system Mus musculus. Description: Toxicity in human A549 cells xenografted athymic nude mouse assessed as body weight loss at 5 mg/kg, ip administered every other day for 21 days. The format is organism-based. The following applies: in vivo, 504 h. Background: Xenograft models place foreign cells or tissue in a host animal.
Series [4] is described as follows: Intrinsic solubility of the compound. The format is physicochemical. The following applies: read-out: Intrinsic_solubility.
A short description of series [5]: Permeability of the compound at pH 7.4. Type of series: physicochemical. As to conditions: not told, read-out: permeability.
Series [6] is described as follows: Lipophilicity, log D of compound at pH 7.4. The format is physicochemical. As to conditions: buffer.

As to `COc1ccc2oc(=O)c(/C=C/C(=O)N3CCC=CC3=O)c(O)c2c1`, the IC50 with HepG2 came to 7.1 µM; in the series on MRC5, 53 µM; in the series with A549 [1], 9.8 µM; in the series with HCT-116 it was 10 µM.
As for `COc1cc2c(O)c(/C=C/C(=O)N3CCC=CC3=O)c(=O)oc2c(OC)c1OC`, the inhibition in vivo at 5 mg/kg with A549 [2] came out at 48.5%. For the same molecule, the IC50 with HepG2 is 5.7 µM; with MRC5, 57 µM; with A549 [1], 4.2 µM; in the series on HCT-116, 3.2 µM. The outcome with A549 [3] was Active. Also, in the series on Mus musculus, the Activity entry is listed as “Non-Toxic”. Also, the solubility in series [4] is 316 µg/mL (≈ 787 µM). Besides, the Papp in series [5] was found to be 20.2 ×10⁻⁶ cm/s.
Turning to `O=C1C=CCCN1C(=O)/C=C/c1c(O)c2ccccc2oc1=O`, the IC50 in the series on HepG2 stood at 6.7 µM; in the series with MRC5, 22 µM; in the series with A549 [1], 12 µM; in the series with HCT-116, 15 µM.
Turning to `CC(C(=O)O)c1cccc(C(=O)c2ccccc2)c1` (configuration not stated) [KETOPROFEN], in series [5], the Papp is 1.98 ×10⁻⁶ cm/s.
For the molecule `O=C1C=CCCN1C(=O)/C=C/c1c(O)c2ccc(Cl)cc2oc1=O`, the IC50 was 15 µM with HepG2, 19 µM with MRC5, 6.5 µM in the series on A549 [1] and 12 µM with HCT-116.
As for `CC(C)NCC(O)COc1cccc2ccccc12` (configuration not stated) [PROPRANOLOL], the Papp in series [5] was 117 ×10⁻⁶ cm/s.
Consider `O=C1CCCCN1C(=O)CCc1c(O)c2ccccc2oc1=O`, for which the half-inhibitory concentration (IC50) was greater than 90 µM in the series with HepG2, 58 µM in the series with MRC5, greater than 90 µM in the series on A549 [1] and greater than 90 µM in the series on HCT-116.
Take `Cc1cc2oc(=O)c(/C=C/C(=O)N3CCC=CC3=O)c(O)c2cc1C`: the IC50 in the series with HepG2 stood at 7.8 µM; in the series on MRC5, 35 µM; in the series on A549 [1], 15 µM; in the series with HCT-116 it was 5.1 µM.
For `O=C1C=CCCN1C(=O)/C=C/c1c(O)c2ccc(F)cc2oc1=O` the same measures were 9.7 µM, 8.9 µM, 18 µM and 11 µM.
Regarding `COc1ccc2c(O)c(/C=C/C(=O)N3CCC=CC3=O)c(=O)oc2c1`, the IC50 was determined as 12 µM with HepG2, 31 µM in the series on MRC5, 11 µM with A549 [1] and 18 µM in the series on HCT-116.
Take `COc1cc(/C=C/C(=O)N2CCC=CC2=O)cc(OC)c1OC` [PIPLARTINE]: the inhibition in vivo at 5 mg/kg in the series with A549 [2] was 41.2%. Also, the IC50 came out at 8.9 µM in the series on HepG2, 37 µM in the series with MRC5, 10 µM in the series with A549 [1] and 9.2 µM with HCT-116. Further, the solubility in [4] stood at 0.75 µg/mL (≈ 2.36 µM). Further, the Papp in series [5] amounted to 24.6 ×10⁻⁶ cm/s. Besides, in series [6], the logD was 2.84.

For orientation: IC50 means the concentration that inhibits the measured activity by half. What is called logD is the decadic logarithm of the distribution of all forms, ionised or not, between an organic phase and buffer at a given pH. Read a high logD as higher lipophilicity.

The values are drawn from ChEMBL document CHEMBL3994639, “Identification of novel ROS inducer by merging the fragments of piperlongumine and dicoumarol” (Bioorg Med Chem Lett, 2017).
